Measurements: publication PMC12029179, “6-Chlorocoumarin Conjugates with Nucleobases and Nucleosides as Potent Anti-Hepatitis C Virus Agents” (Molecules, 2025)

Key:
Detroit 551 cells = assay: Cell viability (MTS) assay in Detroit 551 cells; assay type: cell-based; conditions: Detroit 551 cells; for cell death at highest tested concentration: 20 μM; for IC50: Homo sapiens, 72 h incubation, tested starting at 20.0 μM, read-out: IC50 (cell survival rate of 50%)
Method: Detroit 551 cells, a human fibroblast cell line, are routinely employed to assess both acute and chronic toxicity in normal human cells. Evaluating the cytotoxicity of compounds in Detroit 551 cells helps to identify potential safety concerns early in drug development. The three promising leads, 7a, 7b, and 18, were tested in a Detroit 551 assay using the antineoplastic and antibiotic agent actinomycin D as a positive control.
Detroit 551 cells were harvested and seeded into a 96-well plate, then incubated at 37 °C for 24 h. A serial dilution of the test compound was prepared in eight three-fold concentrations (20,000 nM, 6667 nM, 2222 nM, 741 nM, 247 nM, 82 nM, 27 nM, and 9 nM), and 10 µL of each dilution was added to the corresponding wells. The plate was then returned to 37 °C for an additional 72 h of incubation. After this incubation, a 3-(4,5-dimethylthiazol-2-yl)-5-(3-carboxymethoxyphenyl)-2-(4-sulfophenyl)-2H-tetrazolium (MTS) assay medium (mixed in a 2:0.1 ratio of MTS–phenazine methyl sulfate (PMS)) was prepared. The plate was moved to a biological safety cabinet, and 21 µL of the MTS medium was added to each well. The plate was then incubated at 37 °C for 90 min before absorbance was measured at 490 nm on a Victor 2 plate reader (PerkinElmer, Inc., Waltham, MA, USA). Data were subsequently analyzed to assess cytotoxicity.

[1] = Host-cell metabolic activity (MTS assay) in Huh 5-2 cells; assay type: cell-based; conditions: human
From the text: (§1) An evaluation of the antiviral effects of the conjugated compounds was initially performed in Huh 5-2 cells utilizing the HCV genotype 1b subgenomic replicon system, based on previously reported procedures. By analyzing the dose–response curves, we calculated the concentration of each compound that inhibited the viral replication by 50% (EC50) and the concentration that reduced the host-cell metabolic activity by 50% (CC50). These values were then used to compute the selectivity index (SI = CC50/EC50), which serves as an indicator of a compound’s therapeutic window. Even if an EC50 was determined from the dose–response curve in the antiviral assay, the compounds that were evaluated may not qualify as promising hits. […] It is likely that the antiviral activity observed in the other compounds is due to their nonspecific or pleiotropic effects on the host cell.

[2] = Host-cell metabolic activity in Huh 9-13 cells; assay type: cell-based; conditions: human
Huh 9-13 cells = assay: Host-cell metabolic activity in Huh 9-13 cells; assay type: cell-based
HCV subgenomic replicon = assay: Anti-HCV assay in Huh 9-13 cells (real-time quantitative RT-PCR of replicon RNA); assay type: cell-based, hepatitis C virus (HCV); conditions: for % replicon RNA: normalized against no-drug control; for EC50: Hepatitis C virus
Method: Furthermore, the antiviral activity of three of the hits (i.e., 7a, 7b, and 18) was validated by evaluation of the dose–response effect of treatment with the compounds at the level of viral RNA replication in the Huh 9-13 assay system. The real-time quantitative RT-PCR readout was used.
Huh 9-13 cells were seeded at 5 × 10^3 cells per well into 96-well plates containing complete DMEM supplemented with 1000 µg/mL G418. […] After 4 days of incubation, the culture medium was removed, and the cell monolayers were washed once with phosphate-buffered saline (PBS). Cells were then lysed using 350 µL of RLT buffer (Qiagen, Venlo, The Netherlands) as per the manufacturer’s protocol, and the lysates were stored at −80 °C for future analysis. Upon completion of sample collection, RNA was extracted, and the samples were analyzed through quantitative real-time PCR to measure their HCV replicon content. The real-time RT-PCR data for all samples were calibrated against the “no-drug control”.
* After collection of all samples, RNA was extracted and samples were analyzed by quantitative real-
time PCR for their HCV replicon content. Real-time RT-PCR values of all assayed samples were
normalized against the “no-drug control”.

[3] = test system: HCV genotype 1b subgenomic replicon; assay: Anti-HCV assay in Huh 5-2 cells (luciferase replicon readout); assay type: cell-based, hepatitis C virus (HCV); conditions: for EC50: Hepatitis C virus, Huh-5-2, Huh 5-2 cells, luminescence; for SI (CC50/EC50): Huh 5-2 cells
From the text: as §1
Huh 5-2 cells were plated in white, tissue culture-treated 96-well view plates (Packard, Canberra, Canada) at a density of 5 × 10^3 cells per well, using complete Dulbecco’s Modified Eagle Medium (DMEM) containing 250 µg/mL G418. Following 24 h incubation at 37 °C with 5% CO2, the medium was discarded and serial 3-fold dilutions of the test compounds—prepared in complete DMEM lacking G418—were added to reach a final volume of 100 µL per well. After an additional 4-day incubation period under the same conditions, the medium was removed, and luciferase activity was assessed using the Steady-Glo luciferase assay kit (Promega, Leiden, The Netherlands). Luminescence was measured with a Luminoskan Ascent reader (Thermo, Vantaa, Finland). The EC50 value was determined as the compound concentration resulting in a 50% decrease in luciferase signal.

[4] = primary screening, tested starting at 50 μg/mL
[5] = secondary screen starting at 125 μg/mL
[6] = compound 18 tested starting at 125 µg/mL
[7] = real-time quantitative RT-PCR readout
[8] = secondary screen starting at 125 μg/mL, average of triplicate
[9] = primary screening starting at 50 μg/mL

SMILES | cell death at highest tested concentration (Detroit 551 cells) | IC50 (Detroit 551 cells) | CC50 [1, 4] | CC50 [1, 5] | CC50 [2, 6] | CC50 ([2]; supplement dose-response data) | % cell metabolism (Huh 9-13 cells; 0.023 µg/ml) | % cell metabolism (Huh 9-13 cells; 0.069 µg/ml) | % cell metabolism (Huh 9-13 cells; 0.206 µg/ml) | % cell metabolism (Huh 9-13 cells; 0.617 µg/ml) | % cell metabolism (Huh 9-13 cells; 5.56 µg/ml) | % cell metabolism (Huh 9-13 cells; 16.67 µg/ml) | % cell metabolism (Huh 9-13 cells; 50 µg/ml) | % cell metabolism (Huh 9-13 cells; 1.852 (7b: 1.85) µg/ml) | SI (CC50/EC50) (HCV subgenomic replicon) | Quantity (HCV replicon RNA, real-time PCR) (HCV subgenomic replicon; 0.023 µg/ml) | % replicon RNA (HCV subgenomic replicon; 0.023 µg/ml) | Quantity (HCV replicon RNA, real-time PCR) (HCV subgenomic replicon; 0.069 µg/ml) | % replicon RNA (HCV subgenomic replicon; 0.069 µg/ml) | Quantity (HCV replicon RNA, real-time PCR) (HCV subgenomic replicon; 0.206 µg/ml) | also measured
O=c1oc2ccc(Cl)cc2cc1CSc1ncnc2[nH]cnc12 [Compound 7a, 6-[(6′-Chlorocoumarin-3′-yl)methylthio]purine] | none of the three compounds induced cell death | > 20 µM | > 145 µM | > 363 µM | > 145 µM | > 50 µg/mL | 109% | 104% | 109% | 105% | 112% | 115% | 92% | 109% | >20 | 1.12E-04 | 93% | 1.44E-04 | 119% | 1.36E-04 | % replicon RNA (HCV subgenomic replicon; 0.206 µg/ml): 112%; Quantity (HCV replicon RNA, real-time PCR) (HCV subgenomic replicon; 0.617 µg/ml): 8.96E-05; % replicon RNA (HCV subgenomic replicon; 0.617 µg/ml): 74%; Quantity (HCV replicon RNA, real-time PCR) (HCV subgenomic replicon; 5.56 µg/ml): 2.70E-05; % replicon RNA (HCV subgenomic replicon; 5.56 µg/ml): 22%; Quantity (HCV replicon RNA, real-time PCR) (HCV subgenomic replicon; 16.67 µg/ml): 1.20E-05; % replicon RNA (HCV subgenomic replicon; 16.67 µg/ml): 10%; Quantity (HCV replicon RNA, real-time PCR) (HCV subgenomic replicon; 50 µg/ml): 4.54E-06; % replicon RNA (HCV subgenomic replicon; 50 µg/ml): 4%; Quantity (HCV replicon RNA, real-time PCR) (HCV subgenomic replicon; 1.852 (7b: 1.85) µg/ml): 7.41E-05; % replicon RNA (HCV subgenomic replicon; 1.852 (7b: 1.85) µg/ml): 61%; EC50 (HCV subgenomic replicon; [7]): 7.3 µM; EC50 (HCV subgenomic replicon; supplement dose-response data): 2.5 µg/mL; EC50 [3, 4]: 8.6 µM; EC50 [3, 8]: 4.8 µM; SI (CC50/EC50) [3, 9]: >17; SI (CC50/EC50) [3, 5]: >76
O=c1oc2ccc(Cl)cc2cc1CSc1ncnc2c1ncn2[C@@H]1O[C@H](CO)[C@@H](O)[C@H]1O [Compound 7b, 6-(6′-Chlorocoumarin-3′-yl)methylthio-9-(β-D-ribofuranos-1″-yl)purine] | none of the three compounds induced cell death | > 20 µM | > 105 µM | > 262 µM | > 105 µM | > 50 µg/mL | 100% | 107% | 102% | 108% | 115% | 113% | 94% | 106% | >16 | 1.11E-04 | 92% | 1.33E-04 | 110% | 2.07E-04 | % replicon RNA (HCV subgenomic replicon; 0.206 µg/ml): 171%; Quantity (HCV replicon RNA, real-time PCR) (HCV subgenomic replicon; 0.617 µg/ml): 1.03E-04; % replicon RNA (HCV subgenomic replicon; 0.617 µg/ml): 85%; Quantity (HCV replicon RNA, real-time PCR) (HCV subgenomic replicon; 5.56 µg/ml): 2.85E-05; % replicon RNA (HCV subgenomic replicon; 5.56 µg/ml): 24%; Quantity (HCV replicon RNA, real-time PCR) (HCV subgenomic replicon; 16.67 µg/ml): 1.64E-05; % replicon RNA (HCV subgenomic replicon; 16.67 µg/ml): 14%; Quantity (HCV replicon RNA, real-time PCR) (HCV subgenomic replicon; 50 µg/ml): 3.63E-06; % replicon RNA (HCV subgenomic replicon; 50 µg/ml): 3%; Quantity (HCV replicon RNA, real-time PCR) (HCV subgenomic replicon; 1.852 (7b: 1.85) µg/ml): 9.12E-05; % replicon RNA (HCV subgenomic replicon; 1.852 (7b: 1.85) µg/ml): 75%; EC50 (HCV subgenomic replicon; [7]): 6.6 µM; EC50 (HCV subgenomic replicon; supplement dose-response data): 3.17 µg/mL; EC50 [3, 4]: 8.8 µM; EC50 [3, 8]: 5.6 µM; SI (CC50/EC50) [3, 9]: >12; SI (CC50/EC50) [3, 5]: >47
